What is called IC50 is the point on the concentration scale where inhibition reaches its midpoint.

This note sets out measurements from patent US20050215548A1 (Cyclacel Limited, priority 2002, published 2005).

The structures appear in SMILES notation.

Holding throughout (type): cell-based, human
One assay has as its system AGS. Kind of assay: Combination treatment with cisplatin or etoposide, MTT, AGS. The text has this: (§1) It is well established that radiotherapy and most current forms of chemotherapy cause extensive genetic damage and induction of the p53-dependent apoptotic pathway, which determines the important role of this tumor suppressor protein in cancer therapy. HDM2, on the other hand, as a transcriptional product and negative regulator pf p53, would destabilise p53 and diminish its pro-apoptotic function. Inhibitors of the p53-HDM2 negative feedback loop (e.g. compounds disrupting the p53-HDM2 complex) are expected to synergise with cytotoxic agents for induction of p53 and subsequent apoptosis. […] Both chemotherapeutic agents were used in the concentration range of 100-0.19 μM.

In another assay the test system is SJSA-1. Kind of assay: Combination treatment with cisplatin or etoposide, MTT, SJSA-1.
From the text: as §1

The test system of assay [1] is AGS, H1299, MCF7 or SJSA1 cells. Kind of assay: Cell morphology (cell rounding). The note with it: five times IC50. The text has this:
Equal amounts of cell lysate were separated by SDS-PAGE and analysed by immunoblotting using the indicated antibodies. An estimation of the extent of cell rounding is indicated above each lane. The arrow indicates the position of a 85-kDa cleavage product of PARP, indicative of apoptosis. (B) The effect of compound 2 on the levels of the cell cycle proteins in AGS cells (wild-type 53). […] Equal amounts of cell lysate were separated by SDS-PAGE and analysed by immunoblotting using the indicated antibodies. An estimation of the extent of cell rounding is indicated above each lane. (C) The effect of negative control compound (refer Example 10), compound 2, cisplatin, and anisomycin on the levels of key proteins in MCF7 cells. […] Cisplatinum and anisomycin (a transcription inhibitor) treatments were with 50 μM or 37 μM, respectively. Cells were harvested at various time points; afterwards lysates were prepared and separated by SDS-PAGE and analysed by immunoblotting. The proteins detected are indicated. The extent of rounded or floating cells and the percentage viable cells were assessed. […] Equal amounts of cell lysate were separated by SDS-PAGE and analysed by immunoblotting using a range of antibodies. An estimation of the extent of cell rounding is indicated above each lane. […] SJSA1 cells were treated with 5 times [IC50] of compound 2 and collected at the indicated time points. Equal amounts of cell lysate were separated by SDS-PAGE and analysed by immunoblotting using a range of antibodies. An estimation of the extent of cell rounding is indicated above each lane.
Cells were treated with 5 times [IC50] of compound 2 and collected at various time points. The percentage of rounded cells was counted before cells were trypsinised and counted for cell viability using trypan blue.
Cells were lysed and equal amounts were analysed by SDS-polyacrylamide gel electrophoresis (SDS-PAGE) and immunoblotting. […] The reduction in E2F-1 levels correlated with reduction in E2F transcriptional activity as determined by an E2F-dependent luciferase reporter assay (refer Example 6).

The next assay deals with H1299 cells. Kind of assay: Caspase activity (casp ACE assay), H1299. The note with it: five times the IC50. How it is done:
(§2) In more detail: (A) Cells were treated with […] [IC50] of compound 2 or cisplatinum and collected at the time points indicated. Cell lysates were prepared, the caspase activity was determined using the casp ACE assay and values were plotted on a graph. (B) Cells were treated with 5 times [IC50] of compound 2 or cisplatinum and collected at the time points indicated. AGS cells were also incubated with compound 2 in the presence of a caspase inhibitor Z-VAD.fmk. Cell lysates were prepared, the caspase activity was determined using the casp ACE assay and values were plotted on a graph.
(§3) To characterise the apoptosis-inducing properties of bisarylsulfonamides caspase ⅓ activty was measured. AGS or H1299 cells were treated with a low concentration of compound 2 or cisplatin corresponding to twice the IC50 value (FIG. 6A). Morphological changes were detected in 10-20% of cells by 72 hours corresponding to an induction of caspase activity first detected at 48 hours, increasing by 72 hours. We also treated AGS and H1299 cells with higher concentrations corresponding to five times the IC50 (FIG. 6B). In this experiment we included a […], Z-VAD.fmk to determine the caspase responsible.

The test system of a further assay is AGS cells. The experiment in a line: Caspase activity (casp ACE assay), AGS. The note with it: five times the IC50, compared with cisplatin treatment. How it is done:
as §2, §3

The mark [2] stands for this setting: 2 added 6 hours before etoposide.
Where [3] appears, read: 2 added prior to the treatment with cisplatin.
Where [4] appears, read: Homo sapiens, MTT, 72 hours, Table 5, read-out: IC50, agent alone.

With `O=[N+]([O-])c1cc(S(=O)(=O)Nc2ccc(Cl)cc2)sc1Cl` [Compound 2, 5-Chloro-4-nitrothiophene-2-sulfonic acid (4-chlorophenyl)-amide], the figures for the “IC50 of etoposide, fold lower in cells pre-treated with 2” value in the assay with AGS (setting [2]) and with SJSA-1 (setting [2]) were 3.5 fold and 726 fold, respectively. Further, the “potency increase of cisplatin” value with AGS (setting [3]) was determined as 18.5 fold; with SJSA-1 (setting [3]), 357 fold. The IC50 with AGS (setting [4]) stood at 1.1 µM; in the assay on SJSA-1 (setting [4]), 14 µM. Moreover, in assay [1], the cell rounding result is recorded as “Rapid cell rounding was detected in all cell types tested”. The caspase activity entry with H1299 cells is given as “detected by four hours”; in the assay with AGS cells, “only weak caspase activity was induced by 24 hours”.
